# Data as given in US6737383B1, “Herbicidal oxadiazolidines” (priority 1999, dated 2004).
# Assays:
# bedstraw = test: Test B pre/postemergence bedstraw; assay type: in vivo, Galium aparine
# Summary of the method: (§1)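 Herbicidal effect was estimated by eye on a ten-point control scale after plants spent twelve to sixteen days in a greenhouse following soil or foliar treatment. Foliar sprays targeted plants at one to four leaves; all doses were formulated in a non-phytotoxic solvent with surfactant.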
# blackgrass = test: Test B pre/postemergence blackgrass; assay type: in vivo, Alopecurus myosuroides
# Summary of the method: as §1
# surinam grass = test: Test B pre/postemergence surinam grass; assay type: in vivo, Brachiaria decumbens
# Summary of the method: as §1
# cocklebur = test: Test B pre/postemergence cocklebur; assay type: in vivo, Xanthium strumarium
# Summary of the method: as §1
# corn = test: Test B pre/postemergence corn; assay type: in vivo, Zea mays
# Summary of the method: as §1
# crabgrass = test: Test B pre/postemergence crabgrass; assay type: in vivo, Digitaria sanguinalis
# Summary of the method: as §1
# giant foxtail = test: Test B pre/postemergence giant foxtail; assay type: in vivo, Setaria faberii
# Summary of the method: as §1
# morningglory = test: Test B pre/postemergence morningglory; assay type: in vivo, Ipomoea hederacea
# Summary of the method: as §1
# pigweed = test: Test B pre/postemergence pigweed; assay type: in vivo, Amaranthus retroflexus
# Summary of the method: as §1
# rape = test: Test B pre/postemergence rape; assay type: in vivo, Brassica napus
# Summary of the method: as §1
# soybean = test: Test B pre/postemergence soybean; assay type: in vivo, Glycine max
# Summary of the method: as §1
# sugar beet = test: Test B pre/postemergence sugar beet; assay type: in vivo, Beta vulgaris
# Summary of the method: as §1
# velvetleaf = test: Test B pre/postemergence velvetleaf; assay type: in vivo, Abutilon theophrasti
# Summary of the method: as §1
# wheat = test: Test B pre/postemergence wheat; assay type: in vivo, Triticum aestivum
# Summary of the method: as §1
# wild oat = test: Test B pre/postemergence wild oat; assay type: in vivo, Avena fatua
# Summary of the method: as §1
# purple nutsedge = test: Test B pre/postemergence purple nutsedge; assay type: in vivo, Cyperus rotundus
# Summary of the method: as §1
# rice = test: Test B flood test rice; assay type: in vivo, Oryza sativa
# Summary of the method: (§2)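 Plants were grown to the 2-leaf stage before treatment with test chemical, then held in a greenhouse for twelve to sixteen days. Injury was visually rated against untreated controls on a 0–10 scale, where 0 is no effect and 10 is complete control.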
# smallflower flatsedge = test: Test B flood test smallflower flatsedge; assay type: in vivo, Cyperus difformis
# Summary of the method: as §2
# duck salad = test: Test B flood test duck salad; assay type: in vivo, Heteranthera limosa
# Summary of the method: as §2
# bamyardgrass = test: Test B flood test barnyardgrass; assay type: in vivo, Echinochloa crus-galli
# Summary of the method: as §2
# [1] = Postemergence, Rate 250 g/ha, scale of 0 to 10, 0 is no effect, 10 is complete control
# [2] = Preemergence, Rate 62 g/ha, scale of 0 to 10 where 0 is no effect and 10 is complete control
# [3] = Preemergence, Rate 125 g/ha, scale of 0 to 10 where 0 is no effect and 10 is complete control
# [4] = Preemergence, Rate 500 g/ha, scale of 0 to 10 where 0 is no effect and 10 is complete control
# [5] = Postemergence, Rate 62 g/ha, scale 0 to 10, 0 is no effect, 10 is complete control
# [6] = Postemergence, Rate 125 g/ha, scale of 0 to 10 where 0 is no effect and 10 is complete control
# [7] = Preemergence, Rate 250 g/ha, scale 0 to 10 (0 no effect, 10 complete control)
# [8] = Rate 500 g/ha, Postemergence, scale 0 to 10, 0 is no effect, 10 is complete control
# [9] = Rate 62 g/ha, flood test species, Pre-emergence, visual evaluation after twelve to sixteen days
# [10] = Rate 125 g/ha, under heading Pre-emergence, flood test species, visual evaluation after twelve to sixteen days
# [11] = Rate 250 g/ha, Pre-emergence (flood test species), scale 0 to 10, 0 is no effect, 10 is complete control
# [12] = Rate 500 g/ha, Pre-emergence section of Table B, 0 to 10 scale (0 no effect, 10 complete control)
smiles,measurement,setting,value
CC(C)N(C(=O)n1oc(=O)n(CCCC#N)c1=O)c1ccccc1 [Compound 674],Bedstraw plant response rating,bedstraw; [1],0
same,Bedstraw plant response rating,bedstraw; [2],0
same,"Plant response rating, Bedstraw",bedstraw; [3],0
same,"Plant response rating, Bedstraw",bedstraw; [4],0
same,"Plant response rating, Blackgrass",blackgrass; [5],4
same,Blackgrass plant response rating,blackgrass; [6],7
same,Blackgrass plant response rating,blackgrass; [1],8
same,Blackgrass plant response rating,blackgrass; [2],6
same,"Plant response rating, Blackgrass",blackgrass; [3],8
same,"Plant response rating, Blackgrass",blackgrass; [7],9
same,"Plant response rating, Blackgrass",blackgrass; [4],9
same,Blackgrass plant response rating,blackgrass; [8],9
same,"Plant response rating, B. signalgrass",surinam grass; [5],3
same,B. signalgrass plant response rating,surinam grass; [6],5
same,B. signalgrass plant response rating,surinam grass; [1],8
same,B. signalgrass plant response rating,surinam grass; [2],6
same,"Plant response rating, B. signalgrass",surinam grass; [3],7
same,"Plant response rating, B. signalgrass",surinam grass; [7],8
same,"Plant response rating, B. signalgrass",surinam grass; [4],8
same,B. signalgrass plant response rating,surinam grass; [8],8
same,"Plant response rating, Cocklebur",cocklebur; [5],0
same,Cocklebur plant response rating,cocklebur; [6],0
same,Cocklebur plant response rating,cocklebur; [1],2
same,Cocklebur plant response rating,cocklebur; [2],0
same,"Plant response rating, Cocklebur",cocklebur; [3],0
same,"Plant response rating, Cocklebur",cocklebur; [7],0
same,"Plant response rating, Cocklebur",cocklebur; [4],0
same,Cocklebur plant response rating,cocklebur; [8],4
same,"Plant response rating, Corn",corn; [5],0
same,Corn plant response rating,corn; [6],3
same,Corn plant response rating,corn; [1],6
same,Corn plant response rating,corn; [2],2
same,"Plant response rating, Corn",corn; [3],3
same,"Plant response rating, Corn",corn; [7],5
same,"Plant response rating, Corn",corn; [4],8
same,Corn plant response rating,corn; [8],7
same,"Plant response rating, Crabgrass",crabgrass; [5],6
same,Crabgrass plant response rating,crabgrass; [6],8
same,Crabgrass plant response rating,crabgrass; [1],9
same,Crabgrass plant response rating,crabgrass; [2],8
same,"Plant response rating, Crabgrass",crabgrass; [3],9
same,"Plant response rating, Crabgrass",crabgrass; [7],9
same,"Plant response rating, Crabgrass",crabgrass; [4],9
same,Crabgrass plant response rating,crabgrass; [8],9
same,"Plant response rating, Giant foxtail",giant foxtail; [5],7
same,Giant foxtail plant response rating,giant foxtail; [6],9
same,Giant foxtail plant response rating,giant foxtail; [1],9
same,Giant foxtail plant response rating,giant foxtail; [2],6
same,"Plant response rating, Giant foxtail",giant foxtail; [3],9
same,"Plant response rating, Giant foxtail",giant foxtail; [4],10
same,Giant foxtail plant response rating,giant foxtail; [8],9
same,"Plant response rating, Morningglory",morningglory; [5],2
same,Morningglory plant response rating,morningglory; [6],2
same,Morningglory plant response rating,morningglory; [1],10
same,Morningglory plant response rating,morningglory; [2],0
same,"Plant response rating, Morningglory",morningglory; [3],0
same,"Plant response rating, Morningglory",morningglory; [4],7
same,"Plant response rating, Redroot pigweed",pigweed; [5],0
same,Redroot pigweed plant response rating,pigweed; [6],3
same,Redroot pigweed plant response rating,pigweed; [2],7
same,"Plant response rating, Redroot pigweed",pigweed; [3],7
same,"Plant response rating, Redroot pigweed",pigweed; [4],10
same,Redroot pigweed plant response rating,pigweed; [8],7
same,"Plant response rating, Rape",rape; [5],0
same,Rape plant response rating,rape; [6],0
same,Rape plant response rating,rape; [2],0
same,"Plant response rating, Rape",rape; [3],3
same,"Plant response rating, Rape",rape; [4],8
same,Rape plant response rating,rape; [8],5
same,"Plant response rating, Soybean",soybean; [5],2
same,Soybean plant response rating,soybean; [6],3
same,Soybean plant response rating,soybean; [2],3
same,"Plant response rating, Soybean",soybean; [3],3
same,"Plant response rating, Soybean",soybean; [4],7
same,Soybean plant response rating,soybean; [8],7
same,"Plant response rating, Sugarbeets",sugar beet; [5],0
same,Sugarbeets plant response rating,sugar beet; [6],0
same,Sugarbeets plant response rating,sugar beet; [2],2
same,"Plant response rating, Sugarbeets",sugar beet; [3],5
same,"Plant response rating, Sugarbeets",sugar beet; [4],9
same,Sugarbeets plant response rating,sugar beet; [8],5
same,"Plant response rating, Velvetleaf",velvetleaf; [5],4
same,Velvetleaf plant response rating,velvetleaf; [6],6
same,Velvetleaf plant response rating,velvetleaf; [2],6
same,"Plant response rating, Velvetleaf",velvetleaf; [3],7
same,"Plant response rating, Velvetleaf",velvetleaf; [4],10
same,Velvetleaf plant response rating,velvetleaf; [8],8
same,"Plant response rating, Wheat",wheat; [5],0
same,Wheat plant response rating,wheat; [6],0
same,Wheat plant response rating,wheat; [2],0
same,"Plant response rating, Wheat",wheat; [3],5
same,"Plant response rating, Wheat",wheat; [4],8
same,Wheat plant response rating,wheat; [8],7
same,"Plant response rating, Wild oats",wild oat; [5],0
same,Wild oats plant response rating,wild oat; [6],0
same,Wild oats plant response rating,wild oat; [2],1
same,"Plant response rating, Wild oats",wild oat; [3],3
same,"Plant response rating, Wild oats",wild oat; [4],10
same,Wild oats plant response rating,wild oat; [8],3
same,"Plant response rating, Nutsedge",purple nutsedge; [5],0
same,Nutsedge plant response rating,purple nutsedge; [6],3
same,Nutsedge plant response rating,purple nutsedge; [2],0
same,"Plant response rating, Nutsedge",purple nutsedge; [3],0
same,"Plant response rating, Nutsedge",purple nutsedge; [4],6
same,"Plant response rating, Rice (0 to 10 scale, 0 is no effect, 10 is complete control)",rice; [9],0
same,"Rice plant response rating (0 to 10 scale, 0 is no effect, 10 is complete control)",rice; [10],0
same,Rice plant response rating,rice; [11],0
same,Rice plant response rating,rice; [12],0
same,"Plant response rating, S. Flatsedge (0 to 10 scale, 0 is no effect, 10 is complete control)",smallflower flatsedge; [9],0
same,"S. Flatsedge plant response rating (0 to 10 scale, 0 is no effect, 10 is complete control)",smallflower flatsedge; [10],0
same,S. Flatsedge plant response rating,smallflower flatsedge; [11],0
same,S. Flatsedge plant response rating,smallflower flatsedge; [12],0
same,"Plant response rating, Ducksalad (0 to 10 scale, 0 is no effect, 10 is complete control)",duck salad; [9],0
same,"Ducksalad plant response rating (0 to 10 scale, 0 is no effect, 10 is complete control)",duck salad; [10],0
same,Ducksalad plant response rating,duck salad; [11],0
same,Ducksalad plant response rating,duck salad; [12],0
same,"Plant response rating, Barnyardgrass (0 to 10 scale, 0 is no effect, 10 is complete control)",bamyardgrass; [9],0
same,"Barnyardgrass plant response rating (0 to 10 scale, 0 is no effect, 10 is complete control)",bamyardgrass; [10],0
same,Barnyardgrass plant response rating,bamyardgrass; [11],0
same,Barnyardgrass plant response rating,bamyardgrass; [12],0
